# Assay results from patent US20230414502A1, “Method for Preparing an Aqueous Nanocrystalline Suspension Containing Nanocrystals of Pharmaceutically Active Ingredient and a Combination of Stabilizers, Aqueous Nanocrystalline Suspension and Methods of Use Thereof” (Vysoka skola chemicko-technologicka v Praze, priority 2022, published 2023).
# Entries after “also recorded” stand apart in the source; their conditions may differ.
# Assays:
# [1] = literature values, cell line not given; read-out: IC50 documented for reference drugs; cited from earlier work
# [2] = Microscopy of precipitation/recrystallization in DMEM + 10% FBS or PBS, no cells; assay type: physicochemical; conditions: for Solubility in DMSO (in words): 500 μg/mL at most 1% DMSO not reachable; for Recrystallization of API added from DMSO into DMEM + 10% FBS (microscopy): 1% DMSO, 100 μg/mL abiraterone acetate and telmisartan, 500 μg/mL others, no cells
# [3] = test system: macrophages J774A.1; experiment: Microscopy of samples incubated with macrophages; assay type: cell-based, mouse; conditions: for Recrystallization/precipitation of API added from DMSO, tested with J774A.1 (microscopy): 1% DMSO, 100 or 500 μg/mL, DMEM + 10% FBS
# Protocol: For the purpose of the crystallization form DMSO solution study, the J774A.1 cells in the DMEM+10% FBS+1% AA medium were inoculated in a 96 well-plate with a glass-bottom (Cellvis, P96-1.5H-N) with a density of 2×10^4 cells/well and left to adhere overnight. Then, the medium was removed by aspiration, and nanocrystal samples pre-diluted in the fresh medium were added (from 500 μg/mL decreasing in half concentration trend; 90 μL/well). In some cases (abiraterone acetate, telmisartan), it was not possible to reach 500 μg/mL API concentration together with total DMSO content of maximum 1% (1% DMSO is top limit standard in biochemical testing considering the DMSO toxicity and effect on the cell viability and performance) and therefore these substances were tested at 100 μg/mL concentration. Here the great potential of nanocrystals is clearly presented, since the nanocrystal samples were possible to be prepared and tested at 500 μg/mL even in cases where the DMSO solvents would not be accepted for in vitro testing. If possible, all samples were tested at concentration 500 μg/mL (from nanocrystals or from DMSO stock solutions) and incubated in the well-plate for 18 h.
Recrystallization of API added from DMSO into DMEM + 10% FBS (microscopy) [2],SMILES,IC50 [1] [µM],further results
,O=c1[nH]cc(F)c(=O)[nH]1 [5-fluorouracil],39,
did not form macroscopic crystals,CCOc1nc2cccc(C(=O)OC(C)OC(=O)OC3CCCCC3)c2n1Cc1ccc(-c2ccccc2-c2nnn[nH]2)cc1 (centres unmarked) [Candesartan cilexetil],,
,COc1cc(/C=C/C(=O)CC(=O)/C=C/c2ccc(O)c(OC)c2)ccc1O [Curcumin],,"Recrystallization/precipitation of API added from DMSO, tested with J774A.1 (microscopy) [3]: most significant recrystallization/precipitation; also recorded: precipitation/recrystallization from DMSO occurred and was well detectable"
,CC(C)(C)c1cc(C(C)(C)C)c(NC(=O)c2c[nH]c3ccccc3c2=O)cc1O [Ivacaftor],,"Recrystallization/precipitation of API added from DMSO, tested with J774A.1 (microscopy) [3]: most significant recrystallization/precipitation; also recorded: precipitation/recrystallization from DMSO occurred and was well detectable; Effect on J774A.1 cells, API added as DMSO solution ([3]; 8-125 μg/mL): causes cell death (membrane blobbing)"
,COc1cc(C2Oc3cc([C@H]4Oc5cc(O)cc(O)c5C(=O)[C@@H]4O)ccc3OC2CO)ccc1O (some centres unmarked) [Silybinin],180,
did not form macroscopic crystals,CCCc1nc2c(C)cc(-c3nc4ccccc4n3C)cc2n1Cc1ccc(-c2ccccc2C(=O)O)cc1 [Telmisartan],,Solubility in DMSO (in words) [2]: low solubility
,N.N.[Cl][Pt][Cl] [cisplatin],181,

SMILES,Recrystallization of API added from DMSO into DMEM + 10% FBS (microscopy) [2],IC50 [1] [µM],further results
CC(=O)O[C@H]1CC[C@@]2(C)C(=CC[C@@H]3[C@@H]2CC[C@]2(C)C(c4cccnc4)=CC[C@@H]32)C1 [Abiraterone acetate],formation of both new crystals and solid amorphous phase occurs,,Solubility in DMSO (in words) [2]: low solubility
